These results are taken from publication PMC11984586, “A novel spider toxin as a selective antagonist of the Kv1 subfamily of voltage-gated potassium channels through gating modulation” (The Journal of Biological Chemistry, 2025).

Bridge positions count the residues as written; N and C are the ends. Peptide text beside a SMILES is read from it.

For the assay, the target named is T1, Kv1.2/Y266A (Homo sapiens, UniProt P16389, Y266A).
T1 construct: expressed in transfected cells; host or cells: CHO-K1
Briefly: Whole-cell patch clamp, Tyr-to-Ala mutant homologous to Kv1.3 Y339. It counts as cell-based. Particulars: +30 mV, mean ± SD, n = 4–6. From the text:
Building on the identification of key amino acid residues in Kv1.3 channel that interact with MrVIII through alanine-scanning mutagenesis, we extended our analysis to explore these residues across other Kv1 subfamily channels. […] However, MrVIII retained substantial inhibitory potency on Kv1.2/Y266A mutant, albeit without fully blocking the channel current. […] The profound reduction in MrVIII's effect across homologous mutants supports the idea that it binds to a conserved region.
The cDNA of hKv1.1, hKv1.2, hKv1.3, rKv1.4, hKv1.5, mKv1.6, and hKv1.7 were subcloned into mammalian expression vectors pcDNA3.1 or pCMV-blank vectors, as well as other plasmids described previously ([35]). Channel mutants were generated by site-directed mutations. Briefly, the parental channel plasmid was amplified using a pair of oppositely directed primers harboring the designed mutation site, with KOD Fx (TOYOBO Co, Ltd). The resulting PCR mix was treated with FastDigest DpnI (Thermo Fisher Scientific) to remove the methylated template. […]
CHO-K1 cells were selected for expressing Kv channels due to their lack of endogenous Kv channels, while HEK293 or ND7/23 cells were used for Nav and Cav channel expression. […] After 4 to 6 h transfection, cells were seeded onto poly-lysine–coated coverslips, and 24 to 36 h later, transfected cells were ready for patch-clamp analysis. […]

T1 sequence (P16389 whole entry Y266A): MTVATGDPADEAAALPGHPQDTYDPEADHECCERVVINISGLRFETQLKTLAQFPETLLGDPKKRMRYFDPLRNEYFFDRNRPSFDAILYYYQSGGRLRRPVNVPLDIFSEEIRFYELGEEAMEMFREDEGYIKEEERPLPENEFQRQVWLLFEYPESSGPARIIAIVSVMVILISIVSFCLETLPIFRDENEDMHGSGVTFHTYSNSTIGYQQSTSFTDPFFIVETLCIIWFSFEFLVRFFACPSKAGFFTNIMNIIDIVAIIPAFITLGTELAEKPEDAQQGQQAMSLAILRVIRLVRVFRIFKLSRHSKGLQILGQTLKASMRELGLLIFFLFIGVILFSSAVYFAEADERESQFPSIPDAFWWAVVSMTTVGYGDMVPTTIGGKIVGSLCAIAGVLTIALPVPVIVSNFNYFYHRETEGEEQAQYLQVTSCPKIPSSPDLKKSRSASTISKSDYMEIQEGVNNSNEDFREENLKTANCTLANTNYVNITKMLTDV

Take `CC[C@H](C)[C@@H]1NC(=O)[C@H](Cc2ccc(O)cc2)NC(=O)[C@H](CCC(N)=O)NC(=O)[C@@H]2CCCN2C(=O)[C@@H]2CSSC[C@H](NC(=O)[C@H](C)NC(=O)[C@H](CO)NC(=O)[C@H](CCC(=O)O)NC(=O)[C@H](CCC(=O)O)NC(=O)[C@@H](N)[C@@H](C)O)C(=O)NCC(=O)NCC(=O)N[C@@H](Cc3ccccc3)C(=O)N[C@@H](CC(N)=O)C(=O)N[C@@H](C)C(=O)N[C@@H](CCCNC(=N)N)C(=O)N[C@H]3CSSC[C@H](NC1=O)C(=O)N[C@@H](CCCCN)C(=O)NCC(=O)N[C@@H](Cc1c[nH]c4ccccc14)C(=O)N[C@@H](CCCNC(=N)N)C(=O)N[C@@H]([C@@H](C)O)C(=O)N[C@@H](CCCCN)C(=O)N[C@@H](CCCNC(=N)N)C(=O)N[C@H](C(=O)N[C@@H](CC(C)C)C(=O)N[C@@H](CC(N)=O)C(=O)N1CCC[C@H]1C(=O)O)CSSC[C@H](NC(=O)[C@H](CCCCN)NC(=O)[C@H](Cc1c[nH]cn1)NC(=O)[C@H](CC(C)C)NC(=O)[C@@H]1CCCN1C3=O)C(=O)N2` [MrVIII] (H-TEESACGGFNARCPLHKCCPQYICKGWRTKRCLNP-OH; disulfide 6-19, 13-24, 18-32; N-terminus and C-terminus assumed): the IC50 (current at 50 ms) is 418 ± 41.2 nM. The “inhi%(495 ms), Kv1.2/Y266A current” value (current at 495 ms) worked out at 36.9 ± 14.1%.

As usually defined, the IC50 is the point on the concentration scale where inhibition reaches its midpoint. A lower IC50 goes with greater potency in that assay.
